Changes are numbered by the printed parent chain.
Experiments:
HK-2 cells = assay: CellTiter-Glo cytotoxicity assay, HK-2; type: cell-based, human; details: 24 h
Protocol: (§1) For the cytotoxicity assays involving HepG2, COS-1, and HK-2 cell lines, serial dilutions of MI891 or MI1013 were added to white 96-well tissue culture-treated plates containing these cell lines. After incubating the plates for 24 h at 37 °C, cytotoxicity was assessed using the CellTiter-Glo luminescent cell viability assay (Promega). The luminescence signal was measured with a Synergy2 plate reader (BioTek, Winooski, Vermont, USA) and presented as a relative change compared to the vehicle (DMSO, 0.1%) control, which was set at 100%.

COS-1 cells = assay: CellTiter-Glo cytotoxicity assay, COS-1; type: cell-based, monkey; details: 24 h
Protocol: as §1

wild-type PXR LBD = target: T1, wild-type PXR LBD (Homo sapiens, UniProt O75469); assay: Mammalian two-hybrid assay, wt-PXR LBD with SRC-1-VP16 in HepG2; type: cell-based; details: MI891 at 10 μM
T1 construct: HepG2 cells were cotransfected with a GAL4-hPXR LBD construct and pSCR1-VP16 construct; expressed in transfected cells; host or cells: HepG2
T1 sequence (O75469 146-433 limits assumed): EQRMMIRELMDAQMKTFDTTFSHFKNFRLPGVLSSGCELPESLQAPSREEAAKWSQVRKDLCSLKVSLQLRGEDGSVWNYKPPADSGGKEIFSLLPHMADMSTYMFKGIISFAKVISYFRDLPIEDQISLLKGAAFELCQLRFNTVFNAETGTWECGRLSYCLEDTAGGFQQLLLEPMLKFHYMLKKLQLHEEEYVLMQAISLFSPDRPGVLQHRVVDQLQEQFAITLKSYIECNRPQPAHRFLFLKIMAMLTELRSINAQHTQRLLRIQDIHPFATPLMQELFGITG
From the text: (§2) Additionally, the GAL4-PXR-LBD triple mutants (S247W/C284W/S208W) construct and wild-type GAL4-wtPXR vector were used for PXR LBD mutant functional two-hybrid assay as we described before. In the mammalian two-hybrid assay, HepG2 cells were cotransfected with a GAL4-hPXR LBD construct and pSCR1-VP16 construct. Renilla luciferase vector was used for the normalization of firefly luciferase activity to Renilla luciferase activity.

HepG2 cells = assay: CellTiter-Glo cytotoxicity assay, HepG2; type: cell-based, human; details: 24 h
Protocol: as §1

HepaRG cells = assay: RT-qPCR gene expression in differentiated HepaRG cells; type: cell-based, human; details: 48 h
Protocol: HepaRG cells (Sigma-Aldrich/Merck) were cultivated and differentiated on 12-well plates. Seeded at 26,600 cells/cm^2, they were maintained in William’s medium with supplements. After 14 days, differentiation into hepatocyte-like cells was induced using 1.5% DMSO for another 14 days.
RT-qPCR was utilized to investigate gene expression in HepaRG and PHH. Total RNA was extracted from these cells using the phenol–chloroform method. The concentration of the isolated RNA was then measured using a Nanodrop 1000 spectro-photometer (Thermo Fisher Scientific).
Following RNA isolation, reverse transcription was performed to convert RNA into complementary DNA (cDNA). This step was carried out using the High-capacity cDNA reverse transcription kit (Cat. No. 4374966, ThermoFisher Scientific). The resulting cDNA served as the template for subsequent qPCR reactions.
The qPCR reactions were conducted on the QuantStudio 6 Flex Real-Time PCR System (ThermoFisher Scientific, Waltham, Mas-sachusetts). For these reactions, TaqMan Universal master mix II (Cat. No. 4440047, ThermoFisher Scientific) and TaqMan assays (FAM) utilized in this study are detailed in the Supporting Information. To quantify gene expression, the cycle threshold (Ct) values of the target genes were normalized to the Ct values of reference genes HPRT1 or GAPDH (HepaRG) or TBP (PHH). The normalized values were then expressed as fold changes (2−ΔΔCt) relative to the DMSO control at the specified time points, with the control set as 1.

[1] = target: T2, triple mutant (S208W/S247W/C284W) PXR LBD (Homo sapiens, UniProt O75469, C284W/S208W/S247W); assay: Mammalian two-hybrid assay, obstructed triple mutant PXR LBD with SRC-1-VP16 in HepG2; type: cell-based
T2 construct: the GAL4-PXR-LBD triple mutants (S247W/C284W/S208W) construct; expressed in transfected cells; host or cells: HepG2
T2 sequence (O75469 146-433 S208W/S247W/C284W limits assumed): T1 sequence (O75469 146-433 limits assumed) with S63W, S102W, C139W
From the text: as §2

Row | SULT1E1, SULT1B1, CYP7B1 and NR0B2 (SHP) gene expression (HepaRG cells; MI891 5 μM, MI1013 2 μM) | CYP2B6 mRNA expression (HepaRG cells; at 1 μM, no significant activation at higher concentrations) | CYP3A4 gene expression (HepaRG cells; MI891 5 μM, SPA70 5 μM, MI1013 2 μM) | Compound | effect on viability (HK-2 cells; HK-2, up to 30 μM) | effect on viability (COS-1 cells; COS-1, up to 30 μM) | effect on wt-PXR-LBD/SRC1-VP16 two-hybrid (wild-type PXR LBD) | effect on viability (HepG2 cells; HepG2, up to 30 μM) | CYP3A4 mRNA expression (HepaRG cells; alone or with rifampicin (5 μM), concentration-dependent) | activation of obstructed mutated PXR LBD two-hybrid [1] | cytotoxicity/viability (HK-2 cells; HK-2, up to a concentration of 100 μM) | cytotoxicity/viability (COS-1 cells; COS-1, up to a concentration of 100 μM) | cytotoxicity/viability (HepG2 cells; HepG2, up to a concentration of 100 μM)
1 | significantly downregulated | slightly induced |  | NC(=O)c1cc(Cn2cc(-c3c(-c4ccc(Cl)cc4)nc4c(F)cc(F)cn34)nn2)ccc1Cl [Compound 11, 2-Chloro-5-((4-(2-(4-chlorophenyl)-6,8-difluoroimidazo[1,2-a]pyridin-3-yl)-1H-1,2,3-triazol-1-yl)methyl)-benzamide] | no effects on viability | no effects on viability | disrupted the wt-PXR-LBD/SRC1-VP16 interaction | no effects on viability | suppressed both rifampicin-induced and basal (constitutive) CYP3A4 mRNA expression | Neither MI891 nor SPA70 activated the obstructed mutated PXR LBD |  |  | 
2 | significantly downregulated |  | downregulated | N-(4-((1-(2,5-dimethoxyphenyl)-5-methyl-1H-1,2,3-triazol-4-yl)sulfonyl)phenyl)-3-(2-(2-(2-(4-(((2-(2,6-dioxopiperidin-3-yl)-1,3-dioxoisoindolin-4-yl)amino)methyl)-1H-1,2,3-triazol-1-yl)ethoxy)ethoxy)ethoxy)propenamide [Compound 36] |  |  | does not activate |  |  | does not activate | nontoxic | nontoxic | nontoxic

— publication PMC12305494, “Discovery of PXR Antagonist MI891 and PXR Degrader MI1013 and Their Roles in Hepatic Gene Regulation” (Journal of Medicinal Chemistry, 2025)
